The results in this text go back to patent US20240316053A1, “USE OF FOLATE DERIVATIVE IN PREPARATION OF DRUG FOR TREATING CONTACT LENS DISCOMFORT AND DRY EYE” (LIANYUNGANG JINKANG HEXIN PHARMACEUTICAL CO., LTD., priority 2021, published 2024).

In data set [1] the test system is TNF-α. Description: Semi-quantitative RT-PCR in ipsilateral trigeminal ganglion of mice with chronic dry eye. It counts as in vivo. To be noted: Example 3, 0.5% eye drop, FIG. 7. How it is done:
(§1) The experiment was divided into 3 groups. 20 mice with chronic dry eye in Example 2 were divided into a 5-methylterahydrofolic acid group (group A, n=10), and an arginine group (group B, n=10). 4 normal mice were taken as the control group. Each eye of the mice in group A was dripped with 5 μL of 5-methylterahydrofolic acid eye drop every day, each eye of the mice in group B was dripped with 5 μL of 0.5% arginine eye drop every day, and each eye of the mice in group C was dripped with 5 μL of a phosphate buffer every day. Tears were collected on the 3rd, 5th, 7th and 10th day after treatment, and the secretion of tears was detected. On the 10th day after treatment, the cornea of the mice in each group were stained with fluorescein.
(§2) The ipsilateral trigeminal ganglion and trigeminal trunk of the eye of the mice were dissected quickly on ice, immediately frozen with liquid nitrogen, and stored at −80° C. RNA was extracted from ipsilateral trigeminal ganglion and trigeminal trunk by using NucleoSpin RNA purification II kit (NucleoSpin RNAS, Germany), and PCR amplification was carried out with mouse-specific cDNAs for matrix metalloproteinases MMP-9, MMP-2, and TNF-α. For each primer, the reaction was stopped after 24, 28, 32, 36, or 40 cycles, so as to ensure that the PCR products were within the linear range of the amplification curve, and semi-quantitative RT-PCR for the expression of related genes was realized.

For data set [2], the system named is MMP-9. The description is as above. It counts as in vivo. The settings on record: Example 3, 0.5% eye drop, FIG. 7. How it is done:
as §1, §2

The subject of data set [3] is MMP-2. The description is as above. Type of data set: in vivo. To be noted: Example 3, 0.5% eye drop, FIG. 7. Here is the method:
as §1, §2

The test system of data set [4] is IL-17. Description: Inflammatory factors on ocular surface of mice with chronic dry eye (ELISA). It counts as in vivo. The settings on record: Example 3, 0.5% eye drop, cornea, conjunctiva and draining lymph node, FIG. 6. How it is done:
as §1
After treatment, the animals were euthanized, and the eye tissues such as cornea, lacrimal gland and meibomian gland were taken out and washed in PBS. The cornea, conjunctiva and draining lymph node were collected and stored in cold sterile PBS at −80° C. The samples were homogenized and centrifuged on ice. The levels of […], IL-17 and IL-6 in the supernatant were determined by ELISA kit (Raybiotech).

The subject of data set [5] is symptomatic contact lens wearers. In words: Follow-up of degree of discomfort of wearing contact lenses. Type of data set: in vivo, human. The settings on record: group A (n=4), oral 5 mg calcium salt of 6S-5-methylterahydrofolic acid/tablet every day, contact lenses worn after 3 days. How it is done:
A total of 10 adults suffering from contact lens discomfort were included in the study. Among them, 8 felt uncomfortable when wearing contact lenses, and 2 were asymptomatic contact lens wearers. The contact lenses worn by the participants were all silicone hydrogel-based contact lenses. All the participants were in good health. The symptoms and severity of eye discomfort were evaluated by the ocular surface disease index (OSDI), and whether there were symptoms such as inflammation in the eyes was checked by an optometrist.
(§3) The symptomatic contact lens wearers were divided into 2 groups, that is, group A (n=4) and group B (n=4). The asymptomatic contact lens wearers were assigned to group C The participants in each group didn't wear contact lenses for 24 hours, and then the tears were collected. Dietary supplements containing 5 mg calcium salt of 6S-5-methylterahydrofolic acid/tablet were orally taken by the participants in group A every day. After 3 days, the participants in each group began to wear contact lenses, and the tears were collected after 6 hrs. The contents of IL-2, IL-6, IL-17, and TNF-α were detected (ELISA method). The participants in each group were followed up to determine the degree of discomfort of wearing contact lenses.

For data set [6], the system named is IL-17. Description: IL-17 content in tears of contact lens wearers (ELISA). Type of data set: in vivo, human. To be noted: symptomatic wearers, oral 5 mg/tablet daily, tears collected after 6 hrs of lens wear, FIG. 1. Here is the method: as §3
(In general: In an ELISA, binding on a coated surface is turned into a signal by an enzyme label.)

Data set [7] deals with mice with chronic dry eye. Description: Corneal fluorescein staining in mice with chronic dry eye. Type of data set: in vivo. The settings on record: 10th day after treatment.
Source text: It can be seen that a suitable animal model of dry eye is very important, and it is impossible to show the true state of dry eye or contact lens discomfort only by destroying the lacrimal gland or modeling with hypertonic saline. The mouse model of dry eye constructed under specific environmental conditions is closest to the real situation. 120 female BALB/c mice aged 8-12 weeks were placed in an isolated and sealed cage with an opening on the top. Air dried through anhydrous CaSO4 was pumped into the cage by an air pump, where the air humidity RH=19.5%±5%, the flow rate was 15 L/min, and the temperature was 21-23° C. The mice in the dry and windy environment were taken out on the 5th, 15th and 30th day respectively. The production of tears was measured by phenol red thread test, and compared with that of the mice raised in standard cages in normal environment. Meanwhile, the cornea of the mice were stained with fluorescein, and the punctate staining was recorded in the cornea.
as §1
The experiment was divided into 4 groups. […] Tears were collected on the 3rd, 5th, 7th and 10th day after treatment, and the secretion of tears was detected. […]

The nature of data set [8]: Stability in water. Type of data set: physicochemical.
Where [9] appears, read: Example 3, 0.5% eye drop, 5 μL per eye every day, FIG. 5.

Turning to `CN1c2c(nc(N)[nH]c2=O)NCC1CNc1ccc(C(=O)N[C@@H](CCC(=O)O)C(=O)O)cc1` (some centres unmarked) [5-methylterahydrofolic acid], the “TNF-α gene expression in trigeminal nerve” value in data set [1] is listed as “a certain inhibitory effect on TNF-α”. Further, in data set [2], the “MMP-9 gene expression in trigeminal nerve” value is “not on MMP-9 significantly”. Further, the “MMP-2 gene expression in trigeminal nerve” value in data set [3] is listed as “can significantly inhibit the MMP-2 gene expression”. Further, the “IL-17 inflammatory factor on ocular surface” value in data set [4] is given as “can significantly reduce IL-17 inflammatory factor”. For the same molecule, in data set [5], the “participants saying that the contact lens discomfort almost disappears” value came to 3 participants and the “participants thinking that the effect is not significant” value is given as 1 case. For the same molecule, the “level of IL-17 in tears” value in data set [6] is “can reduce the level of IL-17 in tears”. In addition, in data set [7] (setting [9]), the “corneal injury (fluorescein staining)” value is listed as “can improve the corneal injury with a significant difference from the baseline state”.
`CN1c2c(nc(N)[nH]c2=O)NC[C@@H]1CNc1ccc(C(=O)N[C@@H](CCC(=O)O)C(=O)O)cc1.N=C(N)NCCC[C@H](N)C(=O)O` [arginine 5-methylterahydrofolate, arginine 6S-5-methylterahydrofolate]: the stability in water entry in data set [8] is “very poor”. In addition, the “corneal injury (fluorescein staining)” value in data set [7] (Example 4, eye drops, FIG. 9) is given as “can improve the corneal injury, with a significant difference from the baseline state”.
As for `N=C(N)NCCC[C@H](N)C(=O)O` [arginine, reference compound], in data set [7] (setting [9]), the “corneal injury (fluorescein staining)” value was “can not significantly improve the ocular surface damage”.
